Glass transition temperature data for 68 compounds are collected here from the PolyMetriX glass transition set.

Structures can show the parent of a compound that is named as a salt. ± gives the standard deviation of the reports.

`*/C=C/C(C)C*` (repeat unit) returned a glass transition temperature of -35.00 °C.

`*/C=C/C1CC(*)C(C(=O)OCCCCCCCCOc2ccc(/C=C/c3ccc([N+](=O)[O-])cc3)cc2)C1` (repeat unit): the glass transition temperature amounted to 51.00 °C.

Regarding `*/C=C/C1CC(*)C([Si](C)(C)C)C1` (repeat unit), the glass transition temperature is 113.00 °C.

As for `*/C=C/c1cc(CCCCCCCCCC)c(/C=C/c2ccc(-c3ccc(*)nc3)cn2)cc1CCCCCCCCCC` (repeat unit), the glass transition temperature was 68.00 °C.

`*/C=C/c1cc(OCC(CC)CCCC)c(*)cc1-c1ccc(F)c(C(F)(F)F)c1` (repeat unit) gave a glass transition temperature of 122.00 °C.

Turning to `*/C=C/c1cc(OCC(CC)CCCC)c(/C=C/c2cc(OC)c(*)cc2OC)cc1OC` (repeat unit), the glass transition temperature was found to be 110.00 °C.

Compound `*/C=C/c1cc(OCCCC)c(*)cc1OC` (repeat unit) had a glass transition temperature of 65.00 °C.

Compound `*/C=C/c1cc(OCCCCCCCCCCCC)c(*)cc1OC` (repeat unit) had a glass transition temperature of 36.00 °C.

In turn, `*/C=C/c1cc(OCCc2ccccc2)c(*)cc1OC` (repeat unit) came in with a glass transition temperature of 121.00 °C.

`*/C=C/c1ccc(-c2nnc(-c3ccc(/C=C/c4ccc5c(c4)c4cc(*)ccc4n5CCCCCCCC)cc3)n2-c2ccccc2)cc1` (repeat unit) gave a glass transition temperature of 147.00 °C.

Compound `*/C=C/c1ccc(-c2nnc(-c3ccc(/C=C/c4ccc5c(c4)c4cc(-c6ccc7c(c6)c6cc(*)ccc6n7CCCCCCCC)ccc4n5CCCCCCCC)cc3)n2-c2ccccc2)cc1` (repeat unit) came in with a glass transition temperature of 157.00 °C.

Take `*/C=C/c1ccc(/C=C/[Si](C)(C)c2cccc([Si](*)(C)C)c2)cc1` (repeat unit): the glass transition temperature came out at 33.00 °C.

As for `*C/C=C/C(CC)S(*)(=O)=O` (repeat unit), the glass transition temperature was 70.10 °C.

`*CCCCCCCCCCCCOc1c(OC)cc(/C=C/c2ccc(/C=C/c3cc(OC)c(O*)c(OC)c3)cc2)cc1OC` (repeat unit) gave a glass transition temperature of 61.10 °C.

For the compound `*CCCCCCCCOc1c(OC)cc(/C=C/c2ccc(/C=C/c3cc(OC)c(O*)c(OC)c3)cc2)cc1OC` (repeat unit), the glass transition temperature is 69.40 °C.

`*CCOCCOCCOCCOc1ccc(/C=C(\C)c2ccc(O*)cc2)cc1` (repeat unit) registered a glass transition temperature of 7.50 °C.

`*Nc1ccc(Cc2ccc(NC(=O)/C=C/c3ccc(/C=C/C(*)=O)cc3)cc2)cc1` (repeat unit): the glass transition temperature amounted to 230.00 °C.

On to `*Oc1ccc(OC(=O)/C=C/c2ccc(/C=C/C(*)=O)cc2)cc1` (repeat unit), for which the glass transition temperature is 210.00 °C.

`*c1cccc(N/C=C/C(=O)c2cccc(C(=O)/C=C/Nc3cccc(S(*)(=O)=O)c3)c2)c1` (repeat unit) came in with a glass transition temperature of 215.00 °C.

As to `*CC(*)(C)C(=O)OCCC(C)(C)C` (repeat unit) [Poly(3,3-dimethylbutyl methacrylate)], the glass transition temperature amounted to 45 ± 1.2 °C.

With `*CC(COC)O*` (repeat unit) [Poly(3-methoxypropylene oxide) ], the glass transition temperature is -62 ± 1.2 °C.

`*CC(*)c1ccc(O)cc1` (repeat unit) [Poly(4-hydroxystyrene)] had a glass transition temperature of 157.42 ± 0.8 °C.

On to `*Oc1ccc(C(C)(C)c2ccc(OC(=O)c3ccc(C(*)=O)cc3)cc2)cc1` (repeat unit) [Poly(Bisphenol A terephthalate)], for which the glass transition temperature turned out to be 199.92 ± 1.5 °C.

For `*CC(*)C(=O)NC(C)(C)C` (repeat unit) [Poly(N-tert-butyl acrylamide)], the glass transition temperature stood at 131.42 ± 5.1 °C.

For `*CC(*)(C)C(=O)OCc1ccccc1` (repeat unit) [Poly(benzyl methacrylate)], the glass transition temperature worked out at 54.00 ± 0.5 °C.

As to `*Oc1ccc(C(C)(C)c2ccc(OC(=O)c3cccc(C(*)=O)c3)cc2)cc1` (repeat unit) [Poly(bisphenol A isophthalate)], the glass transition temperature worked out at 184.42 ± 6.3 °C.

In turn, `*CC(*)OCCCC` (repeat unit) [Poly(butyl vinyl ether)] gave a glass transition temperature of -52.08 ± 1.5 °C.

`*CC(*)CC` (repeat unit) [Poly(butylene)]: the glass transition temperature was -36.6 ± 12 °C.

In the case of `*CCCCCC(=O)O*` (repeat unit) [Poly(caprolactone)], the glass transition temperature is 55.0 ± 78 °C.

For the compound `*C(F)(F)C(*)(F)Cl` (repeat unit) [Poly(chlorotrifluoroethylene)], the glass transition temperature came out at 69.47 ± 25 °C.

Take `*CC(*)(C)C(=O)OC1CCCCC1` (repeat unit) [Poly(cyclohexyl methacrylate)]: the glass transition temperature stood at 101.92 ± 20 °C.

Take `*CC(*)(C)C(=O)OCCCCCCCCCC` (repeat unit) [Poly(decyl methacrylate)]: the glass transition temperature is -63.83 ± 1 °C.

In turn, `*CCCCCCCCCCCC(=O)N*` (repeat unit) [Poly(dodecano-12-lactam)] gave a glass transition temperature of 38.4 ± 3.2 °C.

In turn, `*CCOC(=O)c1ccc2cc(C(=O)O*)ccc2c1` (repeat unit) [Poly(ethylene 2,6-naphthalate)] came in with a glass transition temperature of 121.42 ± 2.3 °C.

On to `*CCOC(=O)O*` (repeat unit) [Poly(ethylene carbonate)], for which the glass transition temperature was found to be 10.92 ± 8.4 °C.

Compound `*CCO*` (repeat unit) [Poly(ethylene glycol)] gave a glass transition temperature of -15.6 ± 42 °C.

`*CCOC(=O)c1ccc(C(=O)O*)cc1` (repeat unit) [Poly(ethylene terephthalate)] yielded a glass transition temperature of 75 ± 3.5 °C.

As to `*CC*` (repeat unit) [Poly(ethylene)], the glass transition temperature was -54.00 ± 89 °C.

The compound `*CCOC(=O)c1ccc(C(=O)O*)c2ccccc12` (repeat unit) [Poly(ethylene- 1 ,4-naphthalenedicarboxylate) ] displayed a glass transition temperature of 64 ± 1.2 °C.

As to `*CC(*)C(=O)OCC(C)C` (repeat unit) [Poly(isobutyl acrylate) ], the glass transition temperature was -24 ± 30 °C.

In the case of `*CC(*)OCC(C)C` (repeat unit) [Poly(isobutyl vinyl ether)], the glass transition temperature was -22.08 ± 2.5 °C.

Consider `*CCc1ccc(*)c(C)c1` (repeat unit) [Poly(methyl-p-xylylene) ], for which the glass transition temperature is 55 ± 1.9 °C.

`*CC(*)(C)C(=O)OCCC` (repeat unit) [Poly(n-propyl methacrylate) ]: the glass transition temperature worked out at 35 ± 5.4 °C.

As to `*CC(*)(C)C(=O)OCC(C)(C)C` (repeat unit) [Poly(neopentyl methacrylate) ], the glass transition temperature is 33 ± 3.7 °C.

With `*CC(*)OCCCCCCCC` (repeat unit) [Poly(octyl vinyl ether)], the glass transition temperature was -79.83 ± 0.9 °C.

`*CC(CCl)(CCl)CO*` (repeat unit) [Poly(oxy-2,2-dichloromethyltrimethylene) ] registered a glass transition temperature of -8 ± 10 °C.

`*CCC(C)CCC(=O)O*` (repeat unit) [Poly(oxycarbonyl-3-methylpentamethylene) ] gave a glass transition temperature of -53 ± 0.6 °C.

In turn, `*CC(*)c1ccc(OC)cc1` (repeat unit) [Poly(p-methoxy styrene) ] registered a glass transition temperature of 89 ± 12 °C.

As to `*CC(*)c1ccc(C)cc1` (repeat unit) [Poly(p-methyl styrene) ], the glass transition temperature was 101 ± 1.6 °C.

The compound `*CC(*)c1ccc(C(C)(C)C)cc1` (repeat unit) [Poly(p-t-butyl styrene)] yielded a glass transition temperature of 129 ± 5.6 °C.

On to `*CCc1ccc(*)cc1` (repeat unit) [Poly(p-xylene)], for which the glass transition temperature was determined as 70 ± 10 °C.

The compound `*CC(*)C(=O)c1ccccc1` (repeat unit) [Poly(phenyl vinyl ketone)] had a glass transition temperature of 60.80 ± 17 °C.

The compound `*CC(C)O*` (repeat unit) [Poly(propylene glycol)] came in with a glass transition temperature of -69.18 ± 2.6 °C.

Compound `*CCCCO*` (repeat unit) [Poly(tetramethylene glycol)] came in with a glass transition temperature of -83.6 ± 2.2 °C.

Turning to `*CCCCOC(=O)c1cccc(C(=O)O*)c1` (repeat unit) [Poly(tetramethylene isophthalate)], the glass transition temperature amounted to 21.42 ± 3.4 °C.

Compound `*CC(*)O` (repeat unit) [Poly(vinyl alcohol)] had a glass transition temperature of 79.67 ± 32 °C.

Take `*CC(*)Cl` (repeat unit) [Poly(vinyl chloride)]: the glass transition temperature is 78.42 ± 2.2 °C.

`*CC(*)C1CCCC1` (repeat unit) [Poly(vinyl cyclopentane) ] gave a glass transition temperature of 75 ± 0.6 °C.

`*CC(*)OC(C)CC` (repeat unit) [Poly(vinyl sec-butyl ether) ] yielded a glass transition temperature of -22 ± 3 °C.

Regarding `*CC(*)OC(=O)C(F)(F)F` (repeat unit) [Poly(vinyl trifluoroacetate) ], the glass transition temperature amounted to 46 ± 5.6 °C.

`*CC(*)(F)F` (repeat unit) [Poly(vinylidene fluoride)] registered a glass transition temperature of -32.77 ± 2.3 °C.

`*CC/C=C(/*)Cl` (repeat unit) [Polychloroprene ] yielded a glass transition temperature of -48 ± 18 °C.

For the compound `*CO*` (repeat unit) [Polyoxymethylene ], the glass transition temperature was -56 ± 8.9 °C.

Compound `*CCCO*` (repeat unit) [Polyoxytrimethylene ] came in with a glass transition temperature of -78 ± 3 °C.

For `*CC(*)c1ccc(OC(C)=O)cc1` (repeat unit) [poly(4-acetoxystyrene)], the glass transition temperature is 121.42 ± 12 °C.

Regarding `*c1ccc2c(c1)C(CCCCCCCC)(CCCCCCCC)c1cc(*)ccc1-2` (repeat unit) [poly(9,9-dioctylfluorene)], the glass transition temperature came to 71.00 ± 10 °C.

On to `*OC(C)C(*)=O` (repeat unit) [poly(l - lactic acid)], for which the glass transition temperature amounted to 51.4 ± 43 °C.

Take `*CC(*)OC(C)=O` (repeat unit) [poly(vinyl acetate)]: the glass transition temperature is 40.92 ± 13 °C.
